The results in this text go back to patent US7741355B2, “Small-molecule modulators of TRP-p8 activity” (Dendreon Corporation, priority 2006, dated 2010).

One data set deals with Parent CHO. In words: ATP viability assay with non-transfected (parent) CHO cells. Format: cell-based, Chinese Hamster. To be noted: Cricetulus griseus. The source says:
(§1) Human Trp-p8 transfected CHO cells (referred to herein as CHO/Trp-p8) were generated for use in experiments of the present invention. Expression of Trp-p8 polypeptide in this transfectant and the absence of any endogenous expression in the non-transfected CHO was confirmed by western blot and immunofluorescence using a Trp-p8 specific antibody (GS2.20) as well as the calcium flux assay with Icilin (1-[2-hydroxyphenyl]-4-[3-nitrophenyl]-1,2,3,6-tetrahydropyrimidine-2-one) and menthol (2-isopropyl-5-methyl-cyclohexanol). Non-transfected CHO cells were used to establish the specificity of the effects of the compounds observed with CHO/Trp-p8.
(§2) As a primary screen for efficacy and specificity for agonists, both the non-transfected CHO and CHO/Trp-p8 cells were exposed to 1 or 10 μM of test compounds in 1% dimethylsulfoxide (DMSO) or 1% DMSO (control) in a 96-well black walled, black-bottomed, cell-culture treated plate. DMSO was the solvent for all of the compounds tested. After 24-26 hours at 37° C., the cells were lysed and ATP concentration determined via a chemiluminescence assay using a commercially available reagent kit—Cell Titer-Glo (Promega; Madison, Wis.). […] (EC50 is defined herein as the agonist concentration at which there is a 50% reduction in relative cell viability).

The nature of data set [1]: Plasma concentrations in rats after a single oral dose. Format: in vivo. The conditions noted are these: rodents (FIG. 9A: rats), aqueous formulation, oral gavage. The source says: (§3) FIGS. 9A and 9B are graphs depicting the plasma concentrations of several compounds, as a function of time and dose, in rats (FIG. 9A), and dogs (FIG. 9B) after a single oral dose. […] Blood was collected at the indicated time points, and analyzed for drug levels.

Data set [2] can be described thus: Plasma concentrations in dogs after a single oral dose. The conditions noted are these: Beagle dogs (FIG. 9B), aqueous formulation, oral gavage. Type of data set: in vivo.
Source text: as §3

The target of a further data set is T1, Trp-p8 (Homo sapiens, UniProt Q7Z2W7, T58I).
T1 construct: expressed in transfected cells; host or cells: CHO (Chinese Hamster Ovary) cells
In words: ATP viability assay with CHO/Trp-p8 cells at 37° C. Type of data set: cell-based.
Source text: as §1
This Example discloses an ATP viability assay suitable for screening for effective Trp-p8 agonists. The ATP viability assay described herein employs CHO cells expressing an exogenous Trp-p8 cDNA. This example further establishes that Trp-p8 agonists of the present invention are effective in decreasing the viability of Trp-p8 expressing cells.
The concentration of intracellular ATP declines very rapidly when metabolically active cells undergo necrosis and/or apoptosis. The ATP concentration and consequently the relative cell viability can be measured by established methods using commercially available reagents. In the agonist screening methodology disclosed herein, a compound that specifically decreases the viability of CHO/Trp-p8 cells is referred to as an agonist.
as §2

Data set [3] is described as follows: Sustained plasma levels after oral dosing (half-life, species not stated). Type of data set: in vivo. The conditions noted are these: oral administration, read-out: t½ (sustained plasma levels) (converted).
Source text: as §3

Where [4] appears, read: ATP viability assay, read-out: CHO/Trp-p8 EC50.
[5] abbreviates: Table 2, Formula I-B, CHO/Trp-p8 cells, 24-26 hours at 37° C., 50% reduction in relative cell viability, read-out: EC50.
[6] abbreviates: Table 4, Formula I-D, CHO/Trp-p8 cells, 24-26 hours at 37° C., 50% reduction in relative cell viability, read-out: EC50.
[7] abbreviates: Table 5, Formula I-E, CHO/Trp-p8 cells, 24-26 hours at 37° C., 50% reduction in relative cell viability, read-out: EC50.
The mark [8] stands for this setting: Table 3, Formula I-C, CHO/Trp-p8 cells, 24-26 hours at 37° C., 50% reduction in relative cell viability, read-out: EC50.

Read-outs that look alike come from different tables or passages of the source.

T1 sequence (Q7Z2W7 whole entry T58I): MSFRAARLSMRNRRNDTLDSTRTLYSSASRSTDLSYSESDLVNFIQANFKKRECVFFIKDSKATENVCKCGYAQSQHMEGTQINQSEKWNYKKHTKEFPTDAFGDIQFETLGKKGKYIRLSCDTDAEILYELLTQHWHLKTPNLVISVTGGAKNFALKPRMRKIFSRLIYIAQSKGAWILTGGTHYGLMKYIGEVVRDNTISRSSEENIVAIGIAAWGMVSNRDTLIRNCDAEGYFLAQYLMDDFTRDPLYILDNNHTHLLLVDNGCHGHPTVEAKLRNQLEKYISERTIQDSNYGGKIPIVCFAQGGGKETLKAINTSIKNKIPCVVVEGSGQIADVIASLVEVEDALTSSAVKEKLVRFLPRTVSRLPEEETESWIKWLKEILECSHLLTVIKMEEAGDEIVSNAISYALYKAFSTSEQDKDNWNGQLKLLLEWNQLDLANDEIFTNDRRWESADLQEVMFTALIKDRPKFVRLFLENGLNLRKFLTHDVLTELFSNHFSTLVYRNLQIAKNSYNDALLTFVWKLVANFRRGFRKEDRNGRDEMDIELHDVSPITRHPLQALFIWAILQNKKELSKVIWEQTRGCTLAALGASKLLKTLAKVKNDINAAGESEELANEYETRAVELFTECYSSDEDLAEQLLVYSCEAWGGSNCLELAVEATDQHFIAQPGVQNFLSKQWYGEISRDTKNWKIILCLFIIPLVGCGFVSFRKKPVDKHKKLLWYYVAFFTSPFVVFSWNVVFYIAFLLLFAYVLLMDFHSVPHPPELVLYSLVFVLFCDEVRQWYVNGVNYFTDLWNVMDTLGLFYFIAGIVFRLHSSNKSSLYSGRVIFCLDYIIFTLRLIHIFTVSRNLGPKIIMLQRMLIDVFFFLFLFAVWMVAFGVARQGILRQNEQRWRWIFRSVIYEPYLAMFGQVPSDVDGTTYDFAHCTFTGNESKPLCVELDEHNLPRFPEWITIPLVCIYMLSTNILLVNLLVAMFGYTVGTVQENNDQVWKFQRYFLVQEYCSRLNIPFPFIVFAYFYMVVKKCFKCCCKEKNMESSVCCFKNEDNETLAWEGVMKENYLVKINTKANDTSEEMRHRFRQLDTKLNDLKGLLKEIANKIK

Take `CC(C)[C@@H]1CC[C@@H](C)C[C@H]1C(=O)n1c(=O)n(CCN)c2ccccc21` [II]: the figures for the EC50 with Parent CHO and at Trp-p8 (setting [4]) were > 10 µM and 10 nM, respectively. The “exposure after a single oral administration” value in data set [1] and in data set [2] was “prolonged exposure” each time. In addition, the half-life in data set [3] is ~540 min.
With `CC(C)[C@@H]1CC[C@@H](C)C[C@H]1C(=O)Nc1cc(-c2ccccc2)nn1CCN` [III], the EC50 was > 10 µM in the data set with Parent CHO and 10 nM at Trp-p8 (setting [4]). In addition, the “exposure after a single oral administration” value in data set [1] and in data set [2] was “prolonged exposure” throughout. Also, the half-life in data set [3] was ~540 min.
Regarding `CC(C)[C@@H]1CC[C@@H](C)C[C@H]1C(=O)Nc1cc(-c2ccccc2)nn1C[C@@H](C)N` [Compound 15], the EC50 at Trp-p8 (setting [5]) is < 20 nM.
On to `CC(C)[C@@H]1CC[C@@H](C)C[C@H]1C(=O)NCCc1ccccc1CN` [Compound 34], for which the EC50 on Trp-p8 (setting [6]) was < 20 nM.
Take `CC(C)[C@@H]1CC[C@@H](C)C[C@H]1C(=O)n1c(=O)n(CCN)c2cc(C(=O)Nc3ccncc3)ccc21` [Compound 56]: the EC50 on Trp-p8 (setting [7]) was in the range of 21 to 50 nM.
Regarding `CC(C)[C@@H]1CC[C@@H](C)C[C@H]1C(=O)Nc1cc(-c2cccc(O)c2)nn1CCN` [Compound 27], the EC50 on Trp-p8 (setting [5]) was in the range of 51 to 100 nM.
With `CC(C)[C@@H]1CC[C@@H](C)C[C@H]1C(=O)n1c(=O)n(CCN)c2cnccc21` [Compound 54], the EC50 on Trp-p8 (setting [7]) was in the range of 21 to 50 nM.
Take `CC(C)[C@@H]1CC[C@@H](C)C[C@H]1C(=O)NC[C@@H](OCCN)c1ccccc1` [Compound 29]: the EC50 at Trp-p8 (setting [8]) was < 20 nM.
With `CC(C)[C@@H]1CC[C@@H](C)C[C@H]1C(=O)NCCN(C(=O)CN)c1ccccc1` [Compound 35], the EC50 on Trp-p8 (setting [6]) was 21 to 50 nM.
Regarding `CC(C)[C@@H]1CC[C@@H](C)C[C@H]1C(=O)Nc1cc(-c2ccccc2)nn1CCN` [Compound 16], the EC50 at Trp-p8 (setting [5]) was < 20 nM.
For the molecule `CC(C)[C@@H]1CC[C@@H](C)C[C@H]1C(=O)Nc1ccccc1NC(=O)CN` [Compound 11], the EC50 at Trp-p8 (Table 1, Formula I-A, CHO/Trp-p8 cells, 24-26 hours at 37° C., 50% reduction in relative cell viability, read-out: EC50) is 51 to 100 nM.
In the case of `CCN(CC)CCNC(=O)c1cccc2c1n(CCN)c(=O)n2C(=O)[C@@H]1C[C@H](C)CC[C@H]1C(C)C` [Compound 55], the EC50 at Trp-p8 (setting [7]) is 21 to 50 nM.
On to `CC(C)[C@@H]1CC[C@@H](C)C[C@H]1C(=O)n1c(=O)n(CCN)c2cc(OCCCO)ccc21` [Compound 37, 3-(2-aminoethyl)-5-(3-hydroxypropoxy)-1-(2-isopropyl-5-methylcyclohexanecarbonyl)-1,3-dihydro-benzoimidazol-2-one], for which, on Trp-p8 (setting [7]), the EC50 was < 20 nM.
`COc1ccc2c(c1)n(CCN)c(=O)n2C(=O)[C@@H]1C[C@H](C)CC[C@H]1C(C)C` [Compound 36, 3-(2-Aminoethyl)-1-(2-isopropyl-5-methylcyclohexanecarbonyl)-5-methoxy-1,3-dihydro-benzoimidazol-2-one]: the EC50 at Trp-p8 (setting [7]) was < 20 nM.
In the case of `CC(C)[C@@H]1CC[C@@H](C)C[C@H]1C(=O)NCCc1ccccc1NCCN` [Compound 33, 2-Isopropyl-5-methyl-cyclohexanecarboxylic acid {2-[2-(2-amino-ethylamino)-phenyl]-ethyl}-amide], at Trp-p8 (setting [6]), the EC50 is < 20 nM.
With `CC(C)[C@@H]1CC[C@@H](C)C[C@H]1C(=O)NCC(OCCN)c1ccccc1` (some centres unmarked) [Compound 30, 2-Isopropyl-5-methyl-cyclohexanecarboxylic[2-(2-amino-4-ethoxy)-2-phenyl-ethyl]-amide], at Trp-p8 (setting [8]), the EC50 was < 20 nM.
In the case of `CC(C)[C@@H]1CC[C@@H](C)C[C@H]1C(=O)n1c(=O)n(CCN)c2cc(C(=O)Nc3cccnc3)ccc21` (stereo in doubt) [Compound 48, 3-(2-Amino-ethyl)-1-(2-isopropyl-5-methylcyclohexanecarbonyl)-2-oxo-2,3-dihydro-1H-benzoimidazole-5-carboxylic acid pyridine-3-yl amide], the EC50 on Trp-p8 (setting [7]) was < 20 nM.
`CC(C)[C@@H]1CC[C@@H](C)C[C@H]1C(=O)n1c(=O)n(C[C@@H](C)N)c2ccccc21` [Compound 45, 1-(2-Amino-2-(R)-methylethyl)-3-(2-isopropyl-5-methylcyclohexanecarbonyl)-1,3-dihydro-benzoimidazol-2-one]: on Trp-p8 (setting [7]), the EC50 is < 20 nM.
